Source: PubChem BioAssay AID248 (DTP/NCI, 2004)
Where “and” joins values, the source holds several entries; their conditions need not be identical. Identical values can stand only once. Toxic doses and inconclusive results are not listed. No stated cut-off is given here; in the data, active means T/C of 150% or more; inactive means T/C below 125%.

Test system: L1210 leukemia ip in BDF1 mice, survival T/C
Assay: NCI In Vivo Anticancer Drug Screen. Data for tumor model L1210 Leukemia (intraperitoneal) in B6D2F1 (BDF1) mice
Details: endpoint: mean survival time, higher = longer survival
Method in brief: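 Ratio derived from survival: compound-dosed mice over vehicle-dosed mice, all bearing a transplantable tumor.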

[1] = dose: 50.0 mg/kg/injection, schedule: Q01DX009 (ip), vehicle: saline
[2] = dose: 100.0 mg/kg/injection, schedule: Q01DX001 (ip), vehicle: saline
[3] = dose: 100.0 mg/kg/injection, schedule: Q01DX009 (ip), vehicle: saline
[4] = dose: 100.0 mg/kg/injection, schedule: Q04DX003 (ip), vehicle: saline
[5] = dose: 100.0 mg/kg/injection, schedule: Q01DX009 (ip), vehicle: saline with Tween-80
[6] = dose: 100.0 mg/kg/injection, schedule: Q04DX003 (ip), vehicle: saline with Tween-80
[7] = dose: 200.0 mg/kg/injection, schedule: Q01DX009 (ip), vehicle: saline with Tween-80
[8] = dose: 200.0 mg/kg/injection, schedule: Q04DX003 (ip), vehicle: saline with Tween-80
[9] = dose: 400.0 mg/kg/injection, schedule: Q01DX009 (ip), vehicle: saline with Tween-80
[10] = dose: 400.0 mg/kg/injection, schedule: Q04DX003 (ip), vehicle: saline with Tween-80
[11] = dose: 100.0 mg/kg/injection, schedule: Q01DX009 (ip), vehicle: Klucel (hydroxypropylcellulose) (HPC)
[12] = dose: 200.0 mg/kg/injection, schedule: Q01DX009 (ip), vehicle: Klucel (hydroxypropylcellulose) (HPC)
[13] = dose: 200.0 mg/kg/injection, schedule: Q04DX003 (ip), vehicle: Klucel (hydroxypropylcellulose) (HPC)
[14] = dose: 400.0 mg/kg/injection, schedule: Q01DX009 (ip), vehicle: Klucel (hydroxypropylcellulose) (HPC)
[15] = dose: 400.0 mg/kg/injection, schedule: Q04DX003 (ip), vehicle: Klucel (hydroxypropylcellulose) (HPC)
[16] = dose: 200.0 mg/kg/injection, schedule: Q01DX001 (ip), vehicle: saline
[17] = dose: 400.0 mg/kg/injection, schedule: Q01DX001 (ip), vehicle: saline
[18] = dose: 100.0 mg/kg/injection, schedule: Q01DX001 (ip), vehicle: Klucel (hydroxypropylcellulose) (HPC)
[19] = dose: 100.0 mg/kg/injection, schedule: Q04DX003 (ip), vehicle: Klucel (hydroxypropylcellulose) (HPC)
[20] = dose: 200.0 mg/kg/injection, schedule: Q01DX001 (ip), vehicle: Klucel (hydroxypropylcellulose) (HPC)
[21] = dose: 400.0 mg/kg/injection, schedule: Q01DX001 (ip), vehicle: Klucel (hydroxypropylcellulose) (HPC)
[22] = dose: 200.0 mg/kg/injection, schedule: Q04DX003 (ip), vehicle: saline
[23] = dose: 100.0 mg/kg/injection, schedule: Q04DX002 (ip), vehicle: Klucel (hydroxypropylcellulose) (HPC)
[24] = dose: 100.0 mg/kg/injection, schedule: Q01DX001 (ip), vehicle: saline with Tween-80
[25] = dose: 200.0 mg/kg/injection, schedule: Q01DX001 (ip), vehicle: saline with Tween-80

Measured: T/C

COCc1nnc2ncnc(OC)c2n1
inactive: dose: 25.0 mg/kg/injection, schedule: Q01DX009 (ip), vehicle: saline 106 % of control | dose: 25.0 mg/kg/injection, schedule: Q04DX003 (ip), vehicle: saline 100 % of control | [1] 93 % of control | dose: 50.0 mg/kg/injection, schedule: Q04DX003 (ip), vehicle: saline 102 % of control | [2] 98 % of control | [3] 88 % of control | [4] 98 % of control

COC(OC)c1nc(SC)[nH]c(=O)c1C
inactive: [5] 88 % of control | [6] 105 % of control | [7] 89 % of control | [8] 116 % of control | [9] 88 % of control | [10] 112 % of control

Cc1ccc(NC(=S)NC(Cc2ccccc2)c2ccccc2)cc1 (configuration not stated)
inactive: [11] 97 % of control | [12] 94 % of control | [13] 93 % of control | [14] 96 % of control | [15] 102 % of control

C1=CC2C3C=CC(C3)C2C1 (configuration not stated)
inactive: dose: 50.0 mg/kg/injection, schedule: Q04DX003 (ip), vehicle: saline with Tween-80 95 % of control | [6] 95 % of control | [8] 93 % of control

O=C1C(=O)c2ccc(Br)cc2C(O)=C1C(c1ccccc1)c1ccccc1
inactive: [2] 100 % of control | [16] 106 % of control | [17] 96 % of control

COc1c(Cl)c(C)c(Cl)c(C)c1C#CC(=O)O
inactive: [18] 92 % of control | [19] 95 % of control | [20] 97 % of control | [13] 92 % of control | [21] 101 % of control

O=C1OCC2(CO)SC(c3ccccc3)NC12 (configuration not stated)
inactive: [4] 98 % of control | [22] 92 % of control | dose: 400.0 mg/kg/injection, schedule: Q04DX003 (ip), vehicle: saline 98 % of control

CC(NCCN1CC1)C1CC1 (configuration not stated)
inactive: dose: 20.0 mg/kg/injection, schedule: Q01DX009 (ip), vehicle: saline 120 % of control

OC1(c2ccccc2)c2ccccc2C(O)(c2ccccc2)c2cc3c(cc21)CCCC3 (configuration not stated)
inactive: [23] 102 % of control | dose: 200.0 mg/kg/injection, schedule: Q04DX002 (ip), vehicle: Klucel (hydroxypropylcellulose) (HPC) 91 % of control | dose: 400.0 mg/kg/injection, schedule: Q04DX002 (ip), vehicle: Klucel (hydroxypropylcellulose) (HPC) 91 % of control

Cc1ccccc1OS(=O)(=O)c1cccc([N+](=O)[O-])c1
inactive: [5] 93 % of control | [7] 92 % of control | [9] 90 % of control

Fc1ccccc1-c1nnc(-c2ccccc2)o1
inactive: [19] 98 % of control | [13] 113 % of control | [15] 103 % of control

CC1CCCC1Sc1ccccc1 (configuration not stated)
inactive: [2] 91 % of control | dose: 100.0 mg/kg/injection, schedule: Q01DX009 (ip), vehicle: acetone 99 % of control | [16] 91 % of control | dose: 200.0 mg/kg/injection, schedule: Q01DX009 (ip), vehicle: acetone 106 % of control | [17] 93 % of control | dose: 400.0 mg/kg/injection, schedule: Q01DX009 (ip), vehicle: acetone 92 % of control

O=C1C(=C(C(F)(F)F)C(F)(F)F)CCc2ccccc21
inactive: dose: 50.0 mg/kg/injection, schedule: Q01DX009 (ip), vehicle: Klucel (hydroxypropylcellulose) (HPC) 95 % of control | [18] 91 % of control | [11] 93 % of control | [20] 91 % of control

NC1CCC(Cl)CC1 (configuration not stated)
inactive: [2] 95 % of control | [4] 99 % of control | [16] 106 % of control | [22] 99 % of control | [17] 92 % of control

CN(Cc1ccccc1)c1cc(=O)[nH]c(=O)[nH]1
inactive: [19] 102 % of control | [13] 96 % of control | [15] 100 % of control

CCOC(=O)C(C)C(O)(c1ccccc1)c1ccccc1 (configuration not stated)
inactive: [11] 90 % of control | [12] 97 % of control | [14] 106 % of control

CC1=CC(=O)C(c2ccc(O)cc2O)=CC1=O
inactive: dose: 75.0 mg/kg/injection, schedule: Q01DX001 (ip), vehicle: other 101 % of control

CN1C(=O)NC(C)(C)C1=O
inactive: [2] 99 % of control | [16] 97 % of control | [17] 94 % of control

Cc1cc(Br)c2ccccc2c1NS(=O)(=O)c1ccccc1
inactive: [5] 100 % of control | [6] 109 % of control | [7] 90 % of control | [8] 100 % of control | [9] 92 % of control | [10] 105 % of control

Oc1ccc(O)c2[nH]c(-c3ccc(Cl)cc3)cc12
inactive: dose: 25.0 mg/kg/injection, schedule: Q04DX002 (ip), vehicle: Klucel (hydroxypropylcellulose) (HPC) 94 % of control | dose: 50.0 mg/kg/injection, schedule: Q04DX002 (ip), vehicle: Klucel (hydroxypropylcellulose) (HPC) 100 % of control | [23] 100 % of control

N=Nc1ccc2c(O)c3ccccc3c(O)c2c1
inactive: dose: 100.0 mg/kg/injection, schedule: Q01DX001 (ip), vehicle: carboxymethylcellulose (CMC) 107 % of control | dose: 100.0 mg/kg/injection, schedule: Q01DX009 (ip), vehicle: carboxymethylcellulose (CMC) 100 % of control and 103 % of control | dose: 100.0 mg/kg/injection, schedule: Q04DX002 (ip), vehicle: saline 103 % of control | dose: 100.0 mg/kg/injection, schedule: Q04DX003 (ip), vehicle: carboxymethylcellulose (CMC) 101 % of control | dose: 200.0 mg/kg/injection, schedule: Q01DX001 (ip), vehicle: carboxymethylcellulose (CMC) 104 % of control | dose: 200.0 mg/kg/injection, schedule: Q01DX009 (ip), vehicle: carboxymethylcellulose (CMC) 98 % of control and 100 % of control | dose: 200.0 mg/kg/injection, schedule: Q04DX002 (ip), vehicle: saline 105 % of control and 106 % of control | dose: 200.0 mg/kg/injection, schedule: Q04DX003 (ip), vehicle: carboxymethylcellulose (CMC) 98 % of control | dose: 400.0 mg/kg/injection, schedule: Q01DX001 (ip), vehicle: carboxymethylcellulose (CMC) 105 % of control | dose: 400.0 mg/kg/injection, schedule: Q01DX009 (ip), vehicle: carboxymethylcellulose (CMC) 94 % of control and 96 % of control | dose: 400.0 mg/kg/injection, schedule: Q04DX002 (ip), vehicle: saline 97 % of control and 105 % of control | dose: 400.0 mg/kg/injection, schedule: Q04DX003 (ip), vehicle: carboxymethylcellulose (CMC) 101 % of control

ClC(Cl)C(c1ccccc1)c1ccccc1
inactive: [18] 100 % of control | [20] 97 % of control | [21] 92 % of control

CC(C)(C)OC1C2C=CC1C1C2C(C)(C)C1(C)C (configuration not stated)
inactive: [24] 90 % of control | [25] 90 % of control

CCN(CC)CCOC(=O)c1ccc(C(Cl)Cl)cc1
inactive: [1] 88 % of control | [3] 88 % of control

CCOC(=O)/C(C#N)=C\C=C\c1ccccc1
inactive: [11] 92 % of control | [19] 96 % of control | [12] 98 % of control | [13] 98 % of control | [15] 102 % of control

O=C(c1ccccc1)C1CCCCCC1
inactive: [11] 108 % of control | [19] 94 % of control | [12] 102 % of control | [13] 98 % of control | [14] 104 % of control | [15] 98 % of control

ONC(=Nc1ccccc1)c1ccccc1
inactive: [4] 104 % of control | [22] 101 % of control

COc1ccc(-n2c(=O)c(N=Nc3ccc(Br)cc3)c(O)n(-c3ccc(C)cc3)c2=S)cc1
inactive: dose: 50.0 mg/kg/injection, schedule: Q01DX001 (ip), vehicle: Klucel (hydroxypropylcellulose) (HPC) 94 % of control | [18] 92 % of control | [20] 88 % of control

CC1(C#N)c2ccccc2C=CN1C(=O)c1ccccc1 (configuration not stated)
inactive: [11] 97 % of control | [12] 95 % of control | [14] 92 % of control

O=C1CC(Sc2ccccc2)C(=O)N1c1ccccc1 (configuration not stated)
inactive: [11] 104 % of control | [12] 100 % of control | [14] 107 % of control

COc1c(C)c(C)c(OC)c(Br)c1C
inactive: [24] 98 % of control | [5] 95 % of control | [25] 102 % of control | [7] 98 % of control | dose: 400.0 mg/kg/injection, schedule: Q01DX001 (ip), vehicle: saline with Tween-80 98 % of control | [9] 106 % of control

CSc1n[nH]c(=O)[nH]c1=O
inactive: [2] 100 % of control | [16] 102 % of control | [17] 94 % of control

CC1=C(C)CC(C(Cl)(Cl)Cl)C([N+](=O)[O-])C1 (configuration not stated)
inactive: [5] 96 % of control
